According to patent US4173481A (priority 1976, dated 1979):

How the values were obtained:
[1] = Melting Time in 0.2 N aqueous sodium hydroxide at 60° C.; details: 0.2 N NaOH
Protocol: An emulsion for a green-sensitive layer of a color negative light-sensitivematerial obtained in the same manner as described in Example 1 was divided into four portions, a first portion was used as a control. To the other three portions were added an aqueous solution of Compound 1, 1,3,5-tris(β-vinylsulfonylpropyl)hexahydro-s-triazine (Compound C), bis(vinylsulfonylmethyl) ether (Compound D) in an amount of 1.5 g per 100 g of dry gelatin, respectively. Each emulsion was coated on a subbed polyethylene terephthalate support at a thickness of 5μ and dried.
The strength of the layer was determined using the two methods described below with samples stored at 25° C., 65% RH for 2 days or for 20 days and a sample heat treated at 50° C., 80% RH for 2 days.
A sample strip was immersed in a 0.2 N aqueous solution of sodium hydroxide at 60° C. and the time (min) when the emulsion layer began to melt was measured.

[2] = Photographic properties (fog, relative sensitivity, maximum density of the magenta dye image); details: 1.5 g per 100 g of dry gelatin, Table 1; for Relative Sensitivity: control = 100; for Maximum Density: magenta dye image
Protocol: A silver iodobromide emulsion containing 6.0 mol % of silver iodide was optimally ripened using a sulfur-containing sensitizer and a gold sensitizer to prepare a high speed negative emulsion. To the emulsion were added anhydro-5,5'-tetrachloro-1,1'-diethyl-3,3'-di-(3-sulfopropyl)-benzimidazolocarbocyanine hydroxide as a spectral sensitizer, 4-hydroxy-6-methyl-1,3,3a,7-tetrazaindene as a stabilizer, and 1-(2,4,6-trichlorophenyl)-3-[3-(2,4-di-tert-amylphenoxyacetamide)benzamido]-5-pyrazolone (which was dissolved in tricresyl phosphate and ethyl acetate and dispersed in gelatin with sodium dodecylbenzenesulfonate) as a magenta color forming coupler to prepare an emulsion for a green-sensitivelayer of a color negative light-sensitive material. The emulsion thus-obtained was divided into four portions and a first portion was used as control. To the other three portions were added an aqueous solution of Compound 1 of the present invention, dimethylol urea (Compound A) and mucochloric acid (Compound B), respectively, in an amount of 1.5 g per 100 g of dry gelatin. Each emulsion was coated on a subbed cellulose triacetate support in a coated coupler amount of 1.5×10^-3 mol/m^2 and dried.
These samples were exposed to green light using an NSG II type sensitometer and processed according to the color processing procedure as described in Example 1 of Japanese patent application (OPI) No. 51940/1976 as follows.
The density of the magenta dye image thus-obtained was measured and fog, relative sensitivity and maximum density were determined.

[3] = Strength of gelatin layer surface; details: 65% RH, 5×10^-5 mol per g of dry gelatin
Protocol: A sample was immersed in water at 25° C. for 5 minutes. A pin equipped with a steel ball having a radius of 0.2 mm on the point thereof was pressed on the surface of the sample and the pin was moved at a rate of 5 mm per second on the surface of the sample while the load applied to the pin was continuously varied in the range of 0 to 100 g. The load (g) at which a scratch occurred on the surface was measured.
A 5% solution of gelatin was divided into four portions, a first portion was used as a control and to the other three portions were added Compound 1 of the present invention, Compound B and Compound E in an amount of 5×10^-5 mol per g of dry gelatin, respectively. Each gelatin solution was coated on a subbed polyester film support and dried.
After storing the samples obtained under conditions of 25° C., 65% RH, the strength of the gelatin layer surface thereof was determined.

Molecule | Melting Time ([1]; 2 Days Heated, 50° C., 80% RH) | Melting Time ([1]; 2 Days at 25° C., 65% RH) | Melting Time ([1]; 20 Days at 25° C., 65% RH) | Fog [2] | Relative Sensitivity [2] | Maximum Density [2] | Strength of Layer Surface ([3]; 2 Days at 25° C.) | Strength of Layer Surface ([3]; 7 Days at 25° C.) | Strength of Layer Surface ([3]; 14 Days at 25° C.) | Strength of Layer Surface ([3]; 21 Days at 25° C.)
1,3,5-tris(β-vinylsulfonylpropyl)hexahydro-s-triazine [Compound C] | 3 min | 1 min | 2.5 min | – | – | – | – | – | – | –
C=CS(=O)(=O)CC(O)CS(=O)(=O)C=C [Compound 1, 1,3-bis(Vinylsulfonyl)-2-propanol] | 30 min | 13.5 min | 27 min | 0.10 | 92 | 2.80 | 48 g | 56 g | 58 g | 60 g
O=C/C(Cl)=C(/Cl)C(=O)O [Compound B, mucochloric acid] | – | – | – | 0.14 | 85 | 2.70 | 21 g | 36 g | 45 g | 52 g
C=CS(=O)(=O)CCS(=O)(=O)C=C [Compound E, 1,2-bis(vinylsulfonyl)ethane] | – | – | – | – | – | – | 18 g | 25 g | 32 g | 36 g
